{
  "source": "patent US6194450A",
  "about": "“Polyaromatic heterocyclic compounds and pharmaceutical compositions comprised thereof” (Centre International de Recherches Dermatologiques Galderma, priority 1995, dated 2001)",
  "key": {"RARβ [1]": {"target": "T1, RARβ (Homo sapiens, UniProt P10826)", "T1 sequence (P10826 1-448 isoform P10826-2)": "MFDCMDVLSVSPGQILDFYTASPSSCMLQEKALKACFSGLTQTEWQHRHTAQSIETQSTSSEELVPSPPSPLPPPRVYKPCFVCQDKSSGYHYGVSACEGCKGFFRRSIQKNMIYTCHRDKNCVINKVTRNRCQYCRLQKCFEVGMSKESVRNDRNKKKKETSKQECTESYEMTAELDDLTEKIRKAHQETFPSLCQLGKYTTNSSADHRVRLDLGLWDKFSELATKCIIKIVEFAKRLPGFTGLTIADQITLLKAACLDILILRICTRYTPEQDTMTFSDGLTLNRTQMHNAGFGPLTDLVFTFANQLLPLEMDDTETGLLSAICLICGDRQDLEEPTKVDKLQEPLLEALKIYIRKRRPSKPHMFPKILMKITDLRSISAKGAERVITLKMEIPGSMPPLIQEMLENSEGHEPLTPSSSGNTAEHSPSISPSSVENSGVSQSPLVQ", "experiment": "RAR Transactivation, RARβ (HeLa cells cotransfected with human RAR expression vector and TREpp-tk-CAT reporter)", "format": "cell-based", "design": "expressed in transfected cells", "details": "concentration eliciting 50% of the maximum CAT activity", "description": "(§1) (b) This test was carried out as described in the publication: Bernard B. A., Bernardon J. M., Delescluse C., Martin C., Lenoir M. C., Maignan J., Carpentier B., Pilgrim W. R., Reichert U. and Shroot B., Biochem. Biophys. […] HeLa cells were cotransfected with expression vectors coding for human RARs and the reporter plasmid TREpp-tk-CAT. The value given represents the concentration of test compound which elicited 50% of the maximum CAT activity."}, "RARβ [2]": {"target": "T1, RARβ", "experiment": "RAR binding, RARβ (competition binding, nuclear extracts of transfected cos-7 cells)", "design": "expressed in transfected cells; host or cells: COS-7 (nuclear extracts)", "details": "recombinant human receptors, cos-7 nuclear extracts; competition with [H^3]-4-(5,6,7,8-tetrahydro-5,5,8,8-tetramethyl-2-anthracenyl benzoic acid)", "description": "(c) The binding test was carried out on recombinant human receptors produced by the transfection of cos-7 cells with expression vectors coding for the RAR receptor subtypes."}, "[3]": {"test_system": "mouse embryonic teratocarcinoma F9 cells", "experiment": "Differentiation of mouse embryonic teratocarcinoma F9 cells (plasminogen activator secretion)", "format": "cell-based", "details": "concentration producing half of the maximum amount of plasminogen activator secreted", "description": "Their activities may also be measured in tests of cell transactivation using pretransfected recombinant RAR or RXR receptors (B. A. Bernard et al, Biochemical and Biophysical Research Communication, vol. 186, 977-983 (1992); M. F. Boehm et al, Journal of Medicinal Chemistry, 37, 408-414 (1994)).\nThis differentiation was characterized by the secretion of the plasminogen activator into the culture medium. The activity of the compound is expressed by the AC50 value, which represents the concentration of test compound which produces half of the maximum amount of plasminogen activator secreted."}, "RARγ": {"target": "T2, RARγ (Homo sapiens, UniProt P13631)", "T2 construct": "expressed in transfected cells; host or cells: HeLa", "T2 sequence (P13631 1-454)": "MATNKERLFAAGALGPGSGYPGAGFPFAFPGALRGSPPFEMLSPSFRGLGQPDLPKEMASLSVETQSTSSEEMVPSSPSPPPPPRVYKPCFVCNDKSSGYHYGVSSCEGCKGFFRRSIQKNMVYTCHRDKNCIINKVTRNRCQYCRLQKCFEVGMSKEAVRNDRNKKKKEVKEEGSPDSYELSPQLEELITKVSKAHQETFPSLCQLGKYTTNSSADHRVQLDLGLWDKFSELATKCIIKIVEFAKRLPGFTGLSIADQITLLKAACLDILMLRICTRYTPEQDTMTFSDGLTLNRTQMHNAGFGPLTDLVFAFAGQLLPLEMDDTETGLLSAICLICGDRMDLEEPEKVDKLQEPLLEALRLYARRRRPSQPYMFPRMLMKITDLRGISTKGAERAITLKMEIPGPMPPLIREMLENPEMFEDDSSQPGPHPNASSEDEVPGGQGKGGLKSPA", "experiment": "RAR Transactivation, RARγ (HeLa cells cotransfected with human RAR expression vector and TREpp-tk-CAT reporter)", "format": "cell-based", "details": "concentration eliciting 50% of the maximum CAT activity", "description": "as §1"}, "RARα": {"target": "T3, RARα (Homo sapiens, UniProt P10276)", "T3 construct": "expressed in transfected cells", "T3 sequence (P10276 1-462)": "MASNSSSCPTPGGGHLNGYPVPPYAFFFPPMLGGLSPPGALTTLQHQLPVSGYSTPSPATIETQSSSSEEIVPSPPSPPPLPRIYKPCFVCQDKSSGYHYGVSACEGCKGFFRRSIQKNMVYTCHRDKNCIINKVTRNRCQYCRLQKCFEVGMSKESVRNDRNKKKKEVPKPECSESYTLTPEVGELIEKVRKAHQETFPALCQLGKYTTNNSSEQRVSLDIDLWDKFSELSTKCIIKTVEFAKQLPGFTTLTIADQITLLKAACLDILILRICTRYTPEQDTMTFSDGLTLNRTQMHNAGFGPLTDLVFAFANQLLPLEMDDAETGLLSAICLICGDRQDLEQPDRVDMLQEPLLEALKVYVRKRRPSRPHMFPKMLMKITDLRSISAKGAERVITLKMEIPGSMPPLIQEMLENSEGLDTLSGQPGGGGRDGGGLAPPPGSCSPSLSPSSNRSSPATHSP", "experiment": "RAR Transactivation, RARα (HeLa cells cotransfected with human RAR expression vector and TREpp-tk-CAT reporter)", "format": "cell-based", "details": "concentration eliciting 50% of the maximum CAT activity", "description": "as §1"}},
  "data": [
    {"compound": "O=C(O)c1ccc2c(c1)OCC(c1ccc(O)c(C34CC5CC(CC(C5)C3)C4)c1)=C2", "note": "[Example 13, 3-[(3-(1-adamantyl)-4-hydroxphenyl)-2H-1-benzopyran]-7-carboxylic acid]", "values": [
      {"measurement": "AC50", "setting": "RARβ [1]", "value": 20, "unit": "nM"},
      {"measurement": "Kd", "setting": "RARβ [2]", "value": 3.3, "unit": "µM"},
      {"measurement": "AC50", "setting": "[3]", "value": 107, "unit": "nM"},
      {"measurement": "AC50", "setting": "RARγ", "value": 6, "unit": "nM"},
      {"measurement": "AC50", "setting": "RARα", "value": 47, "unit": "nM"}
    ]},
    {"compound": "COc1ccc(C2=Cc3ccc(C(=O)O)cc3OC2)cc1C12CC3CC(CC(C3)C1)C2", "note": "[Example 1, 3-[(3-(1-adamantyl)-4-methoxyphenyl)-2H-1-benzopyran]-7-carboxylic acid]", "values": [
      {"measurement": "AC50", "setting": "RARβ [1]", "value": 2, "unit": "nM"},
      {"measurement": "AC50", "setting": "RARγ", "value": 4, "unit": "nM"},
      {"measurement": "AC50", "setting": "RARα", "value": 8, "unit": "nM"}
    ]},
    {"compound": "CC(C)(C)c1cc(C2=Cc3ccc(C(=O)O)cc3OC2)cc(C(C)(C)C)c1O", "note": "[Example 11, 3-[(3,5-di-tert-butyl-4-hydroxyphenyl)-2-H-1-benzopyran]-7-carboxylic acid]", "values": [
      {"measurement": "AC50", "setting": "RARβ [1]", "value": 77, "unit": "nM"},
      {"measurement": "Kd", "setting": "RARβ [2]", "value": 3.68, "unit": "µM"},
      {"measurement": "AC50", "setting": "[3]", "value": 320, "unit": "nM"},
      {"measurement": "AC50", "setting": "RARγ", "value": 157, "unit": "nM"}
    ]},
    {"compound": "CC1(C)CCC(C)(C)c2cc(C3=Cc4ccc(C(=O)O)cc4OC3)ccc21", "note": "[Example 2, 3-[(5,6,7,8-tetrahydro-5,5,8,8-tetramethyl-2-naphthyl)-2-H-1-benzopyran]-7-carboxylic acid]", "values": [
      {"measurement": "AC50", "setting": "RARβ [1]", "value": 2, "unit": "nM"},
      {"measurement": "AC50", "setting": "[3]", "value": 58, "unit": "nM"},
      {"measurement": "AC50", "setting": "RARγ", "value": 15, "unit": "nM"},
      {"measurement": "AC50", "setting": "RARα", "value": 22, "unit": "nM"}
    ]}
  ]
}
